Assay results from PubChem BioAssay AID330 (DTP/NCI, 2004).
Values joined by “and” are separate entries in the source; they are usually repeats but may differ in a detail not shown here. Equal values may be shown once. Inconclusive results and toxic doses are left out. The calls were made as follows: active = survival T/C of 150% or more; inactive = T/C below 125% in these data.

Tested on: P388 leukemia ip, CD2F1 mice, survival T/C
Experiment: NCI In Vivo Anticancer Drug Screen. Data for tumor model P388 Leukemia (intraperitoneal) in CD2F1 (CDF1) mice
Settings: endpoint: median survival time, higher = longer survival
In short: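 Mice carrying the transplanted tumor received test compound or vehicle. Survival was recorded in each group, and the value is the treated-group measurement divided by that of the vehicle-treated control group.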

[1] = dose: 50.0 mg/kg/injection, schedule: Q01DX005 (ip), vehicle: Klucel (hydroxypropylcellulose) (HPC)
[2] = dose: 100.0 mg/kg/injection, schedule: Q01DX005 (ip), vehicle: Klucel (hydroxypropylcellulose) (HPC)
[3] = dose: 200.0 mg/kg/injection, schedule: Q01DX005 (ip), vehicle: Klucel (hydroxypropylcellulose) (HPC)
[4] = dose: 60.0 mg/kg/injection, schedule: Q01DX005 (ip), vehicle: saline
[5] = dose: 120.0 mg/kg/injection, schedule: Q01DX005 (ip), vehicle: saline
[6] = dose: 240.0 mg/kg/injection, schedule: Q01DX005 (ip), vehicle: saline
[7] = dose: 50.0 mg/kg/injection, schedule: Q01DX009 (ip), vehicle: saline with Tween-80
[8] = dose: 100.0 mg/kg/injection, schedule: Q01DX009 (ip), vehicle: saline with Tween-80
[9] = dose: 200.0 mg/kg/injection, schedule: Q01DX009 (ip), vehicle: saline with Tween-80
[10] = dose: 60.0 mg/kg/injection, schedule: Q01DX005 (ip), vehicle: saline with Tween-80
[11] = dose: 120.0 mg/kg/injection, schedule: Q01DX005 (ip), vehicle: saline with Tween-80
[12] = dose: 50.0 mg/kg/injection, schedule: Q01DX005 (ip), vehicle: saline
[13] = dose: 25.0 mg/kg/injection, schedule: Q01DX005 (ip), vehicle: saline
[14] = dose: 100.0 mg/kg/injection, schedule: Q04DX002 (ip), vehicle: saline with Tween-80
[15] = dose: 50.0 mg/kg/injection, schedule: Q04DX002 (ip), vehicle: saline with Tween-80
[16] = dose: 6.25 mg/kg/injection, schedule: Q01DX009 (ip), vehicle: saline with Tween-80
[17] = dose: 12.5 mg/kg/injection, schedule: Q01DX009 (ip), vehicle: saline with Tween-80
[18] = dose: 25.0 mg/kg/injection, schedule: Q01DX009 (ip), vehicle: saline with Tween-80
[19] = dose: 50.0 mg/kg/injection, schedule: Q01DX009 (ip), vehicle: saline
[20] = dose: 100.0 mg/kg/injection, schedule: Q01DX009 (ip), vehicle: saline
[21] = dose: 200.0 mg/kg/injection, schedule: Q01DX009 (ip), vehicle: saline
[22] = dose: 50.0 mg/kg/injection, schedule: Q04DX003 (ip), vehicle: saline with Tween-80
[23] = dose: 100.0 mg/kg/injection, schedule: Q04DX003 (ip), vehicle: saline with Tween-80
[24] = dose: 100.0 mg/kg/injection, schedule: Q04DX003 (ip), vehicle: Klucel (hydroxypropylcellulose) (HPC)
[25] = dose: 200.0 mg/kg/injection, schedule: Q04DX003 (ip), vehicle: Klucel (hydroxypropylcellulose) (HPC)
[26] = dose: 50.0 mg/kg/injection, schedule: Q01DX005 (ip), vehicle: saline with Tween-80
[27] = dose: 100.0 mg/kg/injection, schedule: Q01DX005 (ip), vehicle: saline with Tween-80
[28] = dose: 200.0 mg/kg/injection, schedule: Q01DX005 (ip), vehicle: saline with Tween-80

Measured: T/C

N=C(N)c1ccc(N=Nc2c(O)c(C(=O)Nc3ccccc3)cc3ccccc23)cc1
inactive: [1] 100 % of control | [2] 101 % of control | [3] 100 % of control

O=C(O)C(Cc1c[nH]c2ccc(O)cc12)NCC1(O)OCC(O)C(O)C1O (stereo not drawn)
inactive: [4] 97 % of control | [5] 99 % of control | [6] 98 % of control

O=C(O)C(Cc1ccc(O)cc1)NC(=O)C(F)(F)F (stereo not drawn)
inactive: [7] 98 % of control and 100 % of control | [8] 93 % of control | [9] 90 % of control

CCOC1CC2C(=O)C(CC)=C(OC)CC2(CC)CO1 (stereo not drawn)
inactive: [10] 98 % of control | [11] 99 % of control

C=CCC1(CCC#N)C(=O)CC(C)(C)CC1=O
inactive: dose: 100.0 mg/kg/injection, schedule: Q04DX003 (ip), vehicle: saline 104 % of control | dose: 200.0 mg/kg/injection, schedule: Q04DX003 (ip), vehicle: saline 99 % of control | dose: 400.0 mg/kg/injection, schedule: Q04DX003 (ip), vehicle: saline 98 % of control

COc1ccn(C2CCCO2)c(=O)n1 (stereo not drawn)
inactive: [12] 95 % of control | dose: 100.0 mg/kg/injection, schedule: Q01DX005 (ip), vehicle: saline 100 % of control | dose: 200.0 mg/kg/injection, schedule: Q01DX005 (ip), vehicle: saline 88 % of control

CC(=O)C[n+]1ccccc1Oc1ccccc1
inactive: [13] 93 % of control | [12] 96 % of control

C=Cn1c([N+](=O)[O-])cnc1/C=C/c1ccc(C(=O)N(CC)CC)cc1
inactive: [14] 99 % of control | dose: 200.0 mg/kg/injection, schedule: Q04DX002 (ip), vehicle: saline with Tween-80 100 % of control | dose: 400.0 mg/kg/injection, schedule: Q04DX002 (ip), vehicle: saline with Tween-80 100 % of control

Cc1ccc(C)c(S(=O)(=O)Nc2c([N+](=O)[O-])cc([N+](=O)[O-])c3ccccc23)c1
inactive: [15] 95 % of control | [14] 88 % of control

CC(=O)Oc1cc(C)c(Cl)c2c(OC(C)=O)cc(C(C)=O)c(O)c12
inactive: dose: 50.0 mg/kg/injection, schedule: Q01DX009 (ip), vehicle: Klucel (hydroxypropylcellulose) (HPC) 91 % of control | dose: 100.0 mg/kg/injection, schedule: Q01DX009 (ip), vehicle: Klucel (hydroxypropylcellulose) (HPC) 91 % of control | dose: 200.0 mg/kg/injection, schedule: Q01DX009 (ip), vehicle: Klucel (hydroxypropylcellulose) (HPC) 90 % of control

Cc1c(C=[N+]2CCCCC2)c2ccccc2n1C
inactive: [16] 100 % of control | [17] 109 % of control | [18] 109 % of control and 120 % of control | [7] 104 % of control and 118 % of control | [8] 103 % of control

CC(=O)NCC1CC2(Cl)C(Cl)=C(Cl)C1(Cl)C2(Cl)Cl (stereo not drawn)
inactive: [1] 101 % of control | [2] 106 % of control | [3] 106 % of control

CN(C)C(=S)SC1OC(CO)C(OC2OC(CO)C(O)C(O)C2O)C(O)C1O (stereo not drawn)
inactive: [7] 93 % of control | [8] 90 % of control | [9] 88 % of control

C/C(=N\O)c1ccc2ccccc2c1
inactive: [19] 101 % of control | [20] 113 % of control | [21] 102 % of control

CN(C)C(=O)N1OC2CCC1CC2
inactive: [4] 100 % of control | [5] 100 % of control | [6] 100 % of control

CNCCCCCc1cc(-c2ccc([N+](=O)[O-])cc2)n[nH]1
inactive: dose: 25.0 mg/kg/injection, schedule: Q04DX003 (ip), vehicle: saline with Tween-80 103 % of control | [22] 103 % of control | [23] 100 % of control and 94 % of control

CC(C)c1cccc(C(C)C)c1Oc1ccc([N+](=O)[O-])cc1[N+](=O)[O-]
inactive: [22] 94 % of control | [23] 93 % of control | dose: 200.0 mg/kg/injection, schedule: Q04DX003 (ip), vehicle: saline with Tween-80 92 % of control | dose: 400.0 mg/kg/injection, schedule: Q04DX003 (ip), vehicle: saline with Tween-80 90 % of control

CCO/C(C)=N\O
inactive: dose: 25.0 mg/kg/injection, schedule: Q04DX003 (ip), vehicle: Klucel (hydroxypropylcellulose) (HPC) 98 % of control | [19] 103 % of control | dose: 50.0 mg/kg/injection, schedule: Q04DX003 (ip), vehicle: Klucel (hydroxypropylcellulose) (HPC) 98 % of control | [20] 97 % of control | [24] 99 % of control | [21] 101 % of control | [25] 99 % of control

CC1CC=CCC1C1OC(C)C(C)O1 (stereo not drawn)
inactive: [26] 110 % of control | [27] 106 % of control | [28] 109 % of control

C[As](C)SCCO
inactive: dose: 12.5 mg/kg/injection, schedule: Q01DX005 (ip), vehicle: saline with Tween-80 110 % of control | dose: 25.0 mg/kg/injection, schedule: Q01DX005 (ip), vehicle: saline with Tween-80 115 % of control | [26] 117 % of control | [15] 109 % of control

COc1cc(NCCCCCNC(C)C)c2ncc(C)c(C)c2c1
inactive: dose: 12.5 mg/kg/injection, schedule: Q01DX005 (ip), vehicle: saline 102 % of control | [13] 100 % of control | [12] 100 % of control

Nc1[nH]c(=S)[nH]c(=O)c1N=Cc1ccc2c(c1)OCO2
inactive: [24] 108 % of control and 113 % of control | [25] 112 % of control and 114 % of control

N#CC1C(=O)NN=C1c1cc2ccccc2oc1=O (stereo not drawn)
inactive: dose: 100.0 mg/kg/injection, schedule: Q01DX001 (ip), vehicle: saline 97 % of control | dose: 200.0 mg/kg/injection, schedule: Q01DX001 (ip), vehicle: saline 100 % of control | dose: 400.0 mg/kg/injection, schedule: Q01DX001 (ip), vehicle: saline 97 % of control

CN1C(C)(C)CC(C(=O)c2ccccc2)(c2ccccc2)CC1(C)C
inactive: dose: 50.0 mg/kg/injection, schedule: Q01DX005 (ip), vehicle: saline + Tween-80 + alcohol 107 % of control | dose: 100.0 mg/kg/injection, schedule: Q01DX005 (ip), vehicle: saline + Tween-80 + alcohol 100 % of control

Cc1ccc2c(c1)C1(C)OC(C=CC1(C)O)O2 (stereo not drawn)
inactive: [26] 101 % of control | [27] 106 % of control | [28] 106 % of control

COc1cc(O)c(C(C)=O)c(O)c1
inactive: [16] 102 % of control | [17] 93 % of control | [18] 102 % of control | [7] 100 % of control

Cc1c(-c2nnc(N)o2)cc([N+](=O)[O-])cc1[N+](=O)[O-]
inactive: [10] 98 % of control | [11] 100 % of control | dose: 240.0 mg/kg/injection, schedule: Q01DX005 (ip), vehicle: saline with Tween-80 99 % of control

COC(=O)CC1C=CCC2C(=O)C=C(OC)C(=O)C12C (stereo not drawn)
inactive: [1] 103 % of control | [2] 100 % of control | [3] 100 % of control
